Measured values published in patent US20070207544A1, “STROMA-FREE, SERUM-FREE, AND CHEMICALLY DEFINED MEDIUM AND METHOD FOR EX VIVO MONONUCLEAR CELL EXPANSION USING THE SAME” (FOOD INDUSTRY RESEARCH & DEVELOPMENT INSTITUTE, priority 2005, published 2007).

Key:
white blood cells (WBCs) = test: Ex vivo expansion of UCB mononuclear cells: WBC growth (cell density); format: cell-based, human; conditions: for effect of serum substitute on WBC growth: sign of coefficient in Eq. (2), IMDM + seven cytokines; for effect of cytokine on WBC growth: sign of coefficient in Eq. (4), IMDM + BIT
Protocol: (§1) The term UCB was harvested with a standard 250-ml blood bag (Terumo, Shibuya-ku, Tokyo, Japan) with the informed consent and processed within 24 hrs. Buffy coat cells were obtained from UCB by centrifugation (700×g, 20 mins), and were diluted with an equal volume of wash buffer (Dulbecco's phosphate buffered saline, D-PBS, containing 2 mM EDTA, Sigma, St. Louis, Mo.). Then the cells were layered onto Ficoll-Paque solution (ρ=1.077 g/ml, Amersham Biosciences, Uppsala, Sweden) and centrifuged to deplete red blood cells, platelets and plasma (700×g, 40 mins). MNCs were collected, and washed with D-PBS twice. Recovery rate, viability, percentage of CD34^+ fraction, colony-forming cells (CFCs), and long-term culture-initiating cells (LTC-ICs) were determined as day 0 for control. For expansion, MNC were seeded at a concentration of 5×10^5 cells/ml in 24-well plates with variable serum substitutes and cytokines according to experiment design (all experiments were repeated at least six times).
(§2) Two-level factorial design followed the method of steepest ascent was carried out to find the optimal concentrations of serum substitutes and cytokines for CD34^+ cells expansion. Fractional and full factorial design data were regressed by SPSS software to obtain the first order polynomial. Its statistic significance was determined by an F-test and the significance of the regression coefficients was analyzed by a t-test. The polynomial takes the form of White blood cells (WBCs)/ml or CD34^+ cells/ml=α0+αixi (1)
(§3) As has been extensively reviewed [Sandstrom C E, et al. Biotechnol Bioeng. 1994; 43:706-733; Mobest D, et al. Biotechnol Bioeng. 1998; 60:341-347; Bruyn C D, et al. Cytotherapy. 2003; 5:153-160] and based on the inventors' previous experience [Lebkowski J S, et al. Stem Cells. 1995; 13:607-612; Audet J, et al. Biotechnol Bioeng. 2002; 80:393-404; Yao C L, et al. Enzyme Micro Technol. 2003; 33:343-352], four kinds of compounds that are frequently used as serum substitutes were selected—bovine serum albumin (BSA), insulin, transferring (TF), and 2-mercaptoethanol (2-ME). The 2^4 full factorial design was adopted to determine which serum substitutes were required for CD34^+ cell expansion in the MNC culture system. The 2^4 full factorial design could efficiently test four compounds with 16 trials and provide completely degrees of freedom to obtain the coefficients. […] 2003; 33:343-352]; the initial cell density was 5×10^5 MNCs/ml and the cells were analyzed after 7-day culture.
(§4) The 2^10-6 fractional factorial design (16 runs simultaneously) was adopted to identify which cytokines could help CD34^+ cell expansion in the MNC culture system. This design could efficiently test ten compounds with 16 trials and provide sufficient degrees of freedom to obtain the coefficients.

CD34^+ cells = test: Ex vivo expansion of UCB mononuclear cells: CD34^+ cell growth by flow cytometry; format: cell-based, human; conditions: for effect of serum substitute on CD34^+ cell growth: sign of coefficient in Eq. (3), IMDM + seven cytokines
Protocol: as §1, §2, §3, §4

Compound	effect of serum substitute on WBC growth (white blood cells (WBCs))	effect of serum substitute on CD34^+ cell growth (CD34^+ cells)	effect of cytokine on WBC growth (white blood cells (WBCs))	effect of cytokine on CD34^+ cell growth (CD34^+ cells; sign of coefficient in Eq. (5), IMDM + BIT)
OCCS [2-ME, 2-mercaptoethanol, reference compound]	inhibit	inhibit	–	–
HGF: recombinant human hepatocyte growth factor; x10 in Eq. (4), (5)	–	–	inhibit	–
IL-6: recombinant human interleukin-6; x5 in Eq. (4), (5)	–	–	inhibit	positive effect
TF: transferrin, serum substitute; x3 in Eq. (2), (3)	enhance	enhance	–	–
insulin: insulin, serum substitute; x2 in Eq. (2), (3)	enhance	enhance	–	–
